In patent US12465618B2, “Compositions and methods for degenerative disc regeneration” (University Health Network, priority 2015, dated 2025):

What was measured:
Type in all cases: cell-based
rat NP cells = experiment: Western blotting of rat NP cells treated with IL-1β/TNFα with or without inhibitors or growth factors; conditions: rat-tail NP cells treated with IL-1β and TNFα, Western blot, FIG. 5g-5h
Description: After euthanasia, healthy rat lumbar/caudal spine IVDs, injured tail discs and bovine caudal IVD NPs were removed aseptically and the nucleus pulposus (NP) was removed separately and enzymatically digested according to methods established by the present inventors^16. Similarly, human degenerative disc NPs were enzymatically digested using Pronase (0.4%, 1 hr at 37° C.) followed by Collagenase II treatment (0.015%, O/N, 37° C.). The following day, the cells were filtered with a 70p cell strainer and cultured within a hypoxic incubator (NuAire, MN, USA) in 3.5% O2, 5% CO2, in Advanced Dulbecco's modified Eagle's medium (ADMEM) supplemented with 8% fetal bovine serum (FBS) and penicillin and streptomycin (100 U/mL). For treatments, the cells were either cultured in serum free ADMEM (no treatment controls) or treated with interleukin-1β (IL-1β, 10 ng/mL), tumor necrosis factor-alpha (TNFα, 50 ng/mL), connective tissue growth factor (CTGF, 10-100 ng/mL), Wnt-inducible soluble protein 2 (WISP2, 10-100 ng/mL) or transforming growth factor beta 1 (TGFβ1, 5-20 ng/mL) for various time points under hypoxic conditions.
Equal amounts of whole cell or tissue lysates prepared using RIPA lysis buffer were subjected to Western blotting as described earlier^18,19. Total lysates (30 μg) were resolved on 10% sodium dodecyl sulphate-polyacrylamide gels (SDS-PAGE) under reducing conditions and then proteins were electro-transferred onto polyvinyledendifluoride (PVDF) membranes (BioRad, CA). After blocking with 5% non-fat powdered milk in Tris-buffered saline (TBS, 0.1 M, pH=7.4), blots were incubated with rabbit or goat polyclonal/mouse monoclonal primary antibodies at 4° C. overnight. […] Blots were washed three times with TTBS for 15 minutes and protein bands were detected by the enhanced chemiluminescence method (BioRad, CA) on Kodak Hyperfilm.

[1] = tested on: bovine degenerative disc NP cells; experiment: MTT cell viability assay; conditions: CTGF 100 ng/ml, TGFβ1 10 ng/ml, 48 hrs-72 hrs
Description: (§1) Nucleus pulposus cells (rat, bovine and human) were plated in 96-well flat bottom plates in order to evaluate the effect of treatment with growth factors in cell viability and proliferation assays. Rat NP cells were treated with CTGF, WISP-2 and TGFβ1 in a dose (1 ng/mL-100 ng/mL) and time dependent manner (24 hrs-96 hrs) to determine the optimum dose and time for the assessment of these growth factors on viability. Cell viability was determined using 3-(4,5-dimethylthiazol-2-yl)-2,5-diphenyltetrazolium bromide (MTT, Sigma-Aldrich, USA) as previously described^44. A BrdU-ELISA (colorimetric) assay (Cat #ab126556, Abcam) was used for determining the effect of treatment with CTGF or TGFβ1 on human and rat NP cells (healthy/injured) following the manufacturer's instructions. Briefly, NP cells were treated with CTGF or TGFβ1 alone or in combination for 48 hrs following addition of BrdU reagent O/N in each well. Incorporated BrdU in DNA of proliferating cells was determined using anti-BrdU antibody and quantified by ELISA as per the manufacturer's instructions.

[2] = tested on: rat-tail disc NP cells (healthy/injured); experiment: MTT cell viability assay; conditions: CTGF 100 ng/ml, TGFβ1 10 ng/ml, 48 hrs-72 hrs
Description: as §1

[3] = tested on: human degenerated disc NP cells; experiment: BrdU-ELISA cell proliferation assay; conditions: 72 hrs
Description: as §1

[4] = tested on: rat NP cells (healthy/injured); experiment: BrdU-ELISA cell proliferation assay; conditions: rat-tail (healthy/injured) NP cells, 72 hrs
Description: as §1

[5] = tested on: human degenerative disc NP cells; experiment: qRT-PCR with gene specific primers; conditions: human degenerated disc NP cells, real time PCR
Description: Total RNA from healthy and treated (IL-1β alone or in combination with TNFα) rat NP cells, were isolated using RNAeasy extraction kit (Cat #74134, Qiagen) and quantified using a Nanodrop spectrophotometer. Total RNA (˜400 ng) was reverse-transcribed using RT^2 First Strand Kit (Cat #330401, Qiagen) following the manufacturer's instructions for preparing cDNA. To evaluate the effect of IL-1β alone or in combination with TNFα on extra-cellular matrix (ECM) genes in rat NP cells, the RT^2 Profiler™ PCR Array Rat Extracellular Matrix & Adhesion Molecules (PARN-013Z, Qiagen) was used and compared with no treatment controls (NTC) in 3 independent experiments using real time PCR performed on ABI 7900HT 384-well Fast block machine. Data analysis including calculation of ΔΔCt values, fold changes and p-values was carried out using software available online (https://www.qiagen.com/ca). Total RNA was isolated from human degenerative disc NP cells (H1/H2) treated with CTGF, TGFβ1, CTGF+TGFβ1 to evaluate their effect on collagen 2, HAPLN1, versican and thrombospondin 1 using gene specific primers. Similarly, RNA was isolated from human NP cells were treated with […] alone or in combination TNFα in presence of CTGF and TGFβ1 to determine their effect on Cox2 and MMP-13 expression using qRT-PCR.

[6] = tested on: human degenerative disc NP cells; experiment: Caspase 3/7 Lumi-Glo assay, cytokine induced; conditions: 48 hrs
Description: (§2) Apoptosis induced in NP cells (rat and human) as result of treatment with pro-inflammatory cytokines (IL-1β and TNFα) was determined using Caspase 3/7 and Caspase 9 specific Lumi-Glo assays (Promega, Madison). Briefly, NP cells were plated and treated with either IL-1β alone or in combination with TNFα only or in presence of CTGF and TGFβ1 for 48 hrs, followed by addition of specific reagents for Caspase 3/7 and Caspase 9 as per the manufacturer's instructions. Cells were incubated for another 4 hrs at 37° C., and plates were read in a multi-well luminescence plate reader.

[7] = tested on: rat degenerative disc NP cells; experiment: Caspase 3/7 Lumi-Glo assay, cytokine induced; conditions: 48 hrs
Description: as §2

## TGFβ1: Human recombinant transforming growth factor beta 1, Peprotech cat #100-21, identified in NCCM
Rat NP cells
  expression of MMP-3, MMP-13 and Cox2 proteins in presence of growth factor: reduced expression
[1]
  cell viability (MTT): increased the viability
[2]
  cell viability (MTT): increased the viability
[3]
  DNA synthesis (BrdU incorporation): Significant increase
[4]
  DNA synthesis (BrdU incorporation): Significant increase
[5]
  mRNA levels of collagen 2, HAPLN1, versican and thrombospondin1 (THBS1): Increased mRNA levels
[6]
  cytokine (IL-1β and TNFα)-induced caspase 3/7 activity: significant decrease
[7]
  cytokine (IL-1β and TNFα)-induced caspase 3/7 activity: significant decrease
